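In this assay, cells in 96-well plates receive the compound at five concentrations for 48 hours. Endpoints are linearly interpolated between the surrounding concentrations. Abbreviation: GI50, concentration required for 50% inhibition of growth.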 Activity calls are given as the source filed them. Rule as the data show it: active = GI50 up to about 1.1 µM and inactive = higher.
How the values were obtained:
Assay in all cases: NCI-60 cell line screen, 48 h
TK-10 = system: TK-10
SF-268 = system: SF-268
SN12C = system: SN12C
M14 = system: M14
HCT-116 = system: HCT-116
HL-60 = system: HL-60
MDA-MB-231 = system: MDA-MB-231
OVCAR-8 = system: OVCAR-8
Hs-578T = system: Hs-578T
U-251 = system: U-251
NCI-H226 = system: NCI-H226
CAKI-1 = system: CAKI-1
HCC 2998 = system: HCC 2998
A549 = system: A549
T47D = system: T47D
MOLT-4 = system: MOLT-4
NCI/ADR-RES = system: NCI/ADR-RES
OVCAR-3 = system: OVCAR-3
UACC-257 = system: UACC-257
EKVX = system: EKVX

SMILES	GI50 (TK-10)	GI50 (SF-268)	GI50 (SN12C)	GI50 (M14)	GI50 (HCT-116)	GI50 (HL-60)	GI50 (MDA-MB-231)	GI50 (OVCAR-8)	GI50 (Hs-578T)	GI50 (U-251)	GI50 (NCI-H226)	GI50 (CAKI-1)	GI50 (HCC 2998)	GI50 (A549)	GI50 (T47D)	GI50 (MOLT-4)	GI50 (NCI/ADR-RES)	GI50 (OVCAR-3)	GI50 (UACC-257)	GI50 (EKVX)
c1cc2c(cc1NC1=NCCO1)CCCC2	10.6 µM (inactive)	5.56 µM (inactive)	3.56 µM (inactive)	2.88 µM (inactive)	2.76 µM (inactive)	2.66 µM (inactive)	2.16 µM (inactive)	3.66 µM (inactive)	4.6 µM (inactive)	4.16 µM (inactive)	3.37 µM (inactive)	18.6 µM (inactive)	2.55 µM (inactive)	4.8 µM (inactive)	10.6 µM (inactive)	2.65 µM (inactive)	2.18 µM (inactive)	3.51 µM (inactive)	3.77 µM (inactive)	8.04 µM (inactive)
C/C=C(\C)C(O)C(C)C(O)C/C=C(C)/C=C(\C)C/C(C)=C/C/C=C(\C)C(O)C(C)c1ccc(CCC)c(=O)o1 (stereo not given)	17.5 µM (inactive)	15.8 µM (inactive)	16.6 µM (inactive)	14.9 µM (inactive)	0.544 µM (active)	> 100 µM (inactive)	13.2 µM (inactive)	12.9 µM (inactive)	14.5 µM (inactive)	11.4 µM (inactive)	21.1 µM (inactive)	12.9 µM (inactive)	12.9 µM (inactive)	3.57 µM (inactive)	12.1 µM (inactive)	20 µM (inactive)	2.8 µM (inactive)	12.1 µM (inactive)	0.249 µM (active)	17.5 µM (inactive)
COC(=O)CC1C(C)(C)C(=O)C2CC3=C4CC(=O)OC(c5ccoc5)C4(C)CCC3C1(C)C2=O (stereo not given)	> 100 µM (inactive)	> 100 µM (inactive)	> 100 µM (inactive)	> 100 µM (inactive)	> 100 µM (inactive)	44.4 µM (inactive)	> 100 µM (inactive)	> 100 µM (inactive)	> 100 µM (inactive)	> 100 µM (inactive)	> 100 µM (inactive)	> 100 µM (inactive)	> 100 µM (inactive)	> 100 µM (inactive)	> 100 µM (inactive)	> 100 µM (inactive)	> 100 µM (inactive)	> 100 µM (inactive)	> 100 µM (inactive)	> 100 µM (inactive)
CN1C(NN)=NS(=O)(=O)c2ccccc21	> 100 µM (inactive)	> 100 µM (inactive)	> 100 µM (inactive)	> 100 µM (inactive)	> 100 µM (inactive)	> 100 µM (inactive)	> 100 µM (inactive)	> 100 µM (inactive)	> 100 µM (inactive)	> 100 µM (inactive)	> 100 µM (inactive)	> 100 µM (inactive)	> 100 µM (inactive)	> 100 µM (inactive)	> 100 µM (inactive)	> 100 µM (inactive)	> 100 µM (inactive)	> 100 µM (inactive)	> 100 µM (inactive)	> 100 µM (inactive)
CCCCCCCCCCCCCCCCCCNc1ccn(C2OC(CO)C(O)C2O)c(=O)n1 (stereo not given)	> 100 µM (inactive)	> 100 µM (inactive)	> 100 µM (inactive)	55.5 µM (inactive)	> 100 µM (inactive)	2.49 µM (inactive)	> 100 µM (inactive)	> 100 µM (inactive)	> 28.8 µM (inactive)	38.6 µM (inactive)	> 100 µM (inactive)	> 100 µM (inactive)	50.5 µM (inactive)	79.8 µM (inactive)	> 40.7 µM (inactive)	4.58 µM (inactive)	> 100 µM (inactive)	> 100 µM (inactive)	> 100 µM (inactive)	> 100 µM (inactive)
CC1=CCCC2C1(C)CCC(C)C2(C)Cc1cc(O)ccc1O (stereo not given)	11.1 µM (inactive)	7.26 µM (inactive)	8.3 µM (inactive)	14.4 µM (inactive)	4 µM (inactive)	1.22 µM (inactive)	12.9 µM (inactive)	4.54 µM (inactive)	6.19 µM (inactive)	4.26 µM (inactive)	9.29 µM (inactive)	7.1 µM (inactive)	8.59 µM (inactive)	5.62 µM (inactive)	6.59 µM (inactive)	2.43 µM (inactive)	5.21 µM (inactive)	5.74 µM (inactive)	13.2 µM (inactive)	6.27 µM (inactive)
C/C=C/C=C/C1=NN(c2cccc(S(=O)(=O)O)c2)C2(C1)C(Cl)C(=O)N2c1nc2ccccc2s1 (stereo not given)	14.3 µM (inactive)	16.6 µM (inactive)	14.9 µM (inactive)	15.1 µM (inactive)	14.4 µM (inactive)	15.6 µM (inactive)	14.5 µM (inactive)	22 µM (inactive)	25.2 µM (inactive)	9.55 µM (inactive)	14.3 µM (inactive)	8.24 µM (inactive)	16.9 µM (inactive)	14.6 µM (inactive)	4.6 µM (inactive)	28.6 µM (inactive)	27.2 µM (inactive)	8.36 µM (inactive)	15.4 µM (inactive)	16.4 µM (inactive)
COc1ccc(S(=O)(=O)n2c3c(c4ccccc42)[C@@H]2[C@@H](CCCN2C(=O)C[S+]([O-])c2ccc(C)cc2)[C@H](Cl)C3)cc1 (stereo not given in full)	32 µM (inactive)	> 100 µM (inactive)	> 100 µM (inactive)	> 100 µM (inactive)	> 100 µM (inactive)	99.8 µM (inactive)	> 100 µM (inactive)	> 100 µM (inactive)	> 100 µM (inactive)	> 100 µM (inactive)	> 100 µM (inactive)	> 100 µM (inactive)	> 100 µM (inactive)	> 100 µM (inactive)	> 100 µM (inactive)	> 100 µM (inactive)	> 100 µM (inactive)	> 100 µM (inactive)	> 100 µM (inactive)	> 100 µM (inactive)
COc1cc2c(cc1OC)CC(N=[N+]=[N-])c1cc(OC)c(OC)cc1/C=C\2 (stereo not given)	> 100 µM (inactive)	51.8 µM (inactive)	68.5 µM (inactive)	24.2 µM (inactive)	28.7 µM (inactive)	10 µM (inactive)	30.8 µM (inactive)	18.4 µM (inactive)	24 µM (inactive)	51.2 µM (inactive)	3.18 µM (inactive)	21 µM (inactive)	81.7 µM (inactive)	38.8 µM (inactive)	75 µM (inactive)	41 µM (inactive)	25.2 µM (inactive)	53.7 µM (inactive)	46 µM (inactive)	43.2 µM (inactive)
c1ccc2c(NCCCCCCNc3c4ccccc4nc4ccccc34)c3ccccc3nc2c1	1.34 µM (inactive)	0.56 µM (active)	0.137 µM (active)	1.23 µM (inactive)	0.0392 µM (active)	0.25 µM (active)	0.08 µM (active)	0.289 µM (active)	0.682 µM (active)	0.276 µM (active)	0.587 µM (active)	1.53 µM (inactive)	0.171 µM (active)	0.29 µM (active)	0.647 µM (active)	0.0149 µM (active)	17.9 µM (inactive)	0.277 µM (active)	2.7 µM (inactive)	0.367 µM (active)

Source: ChEMBL document CHEMBL1201862, “PubChem BioAssay data set” (2004)
